Reference: patent US20140243422A1, “METHODS OF TREATING BEHAVIORAL AND PSYCHIATRIC DISORDERS” (ELAN PHARMACEUTICALS, INC., priority 2011, published 2014)

Columns and labels:
[1] = system: amyloid β-peptide; settings: given orally, transgenic mouse model of AD; cited from earlier work
[2] = system: patients with mild to moderate AD (MMSE 16-26); test: Phase 2 placebo-controlled trial: cognitive and functional outcome measures (NTB, ADCS-ADL, CDR-SB); format: in vivo, human
Protocol: In a Phase 2, parallel arm, dose-ranging, placebo-controlled, double-blind, multicenter trial in patients with mild to moderate AD (MMSE 16-26), scyllo-inositol was administered to study subjects in immediate release tablets twice daily at the dosage level set for each study arm or identical-appearing placebo tablets were administered in the control arm. […] The study included neuropsychological assessments using the NPI-12 item scale, as well as assessments of scyllo-Inositol (SI) and myo-inositol (MI) brain levels using magnetic resonance spectroscopy (MRS).
Study drug was administered as placebo or one of 3 doses of scyllo-inositol (SI): 250 mg, 1000 mg and 2000 mg, each dose given twice daily (bid) as capsules of either 250 mg or 1000 mg.
The present study was a dose ranging study in Mild and Moderate AD patients (defined as having MMSE scores of 16-26 inclusive), and included 3 doses of scyllo-insoitol given bid (250 mg, 1000 mg, and 2000 mg) and placebo. The study was of 78 weeks duration and enrolled a total of 353 patients, and 351 received study drug (safety population). Due to safety findings in the 2 highest dose groups, these 2 groups were discontinued and the study's final efficacy analysis was based only on the 250 mg and placebo groups. The primary efficacy analysis was based on the overall population (mild and moderate), but the statistical analysis plan (SAP) Included subgroup analyses by disease severity, and defined Mild as patients with MMSE 23-26 and Moderate 16-22 inclusive. In the overall study population, total randomized to all 4 dose groups=353, total that received study drug=351 (safety population, at any dose). For placebo and 250 mg group, the overall m-ITT (modified intent-to-treat)=166, overall PPS (per protocol set)=96.
Values for all clinical outcome measures were calculated so that a positive change from baseline indicates improvement, and a positive difference from placebo indicates drug benefit.
A sensitivity analysis was performed post-hoc using a wider definition of the Mild sub-group (MMSE: 22-26 inclusive) with a larger sample size. In this sensitivity analysis, the positive effect of the 250 mg on the NTB score approached a significant trend (p<0.1) in the m-ITT analysis (Table 3), and was significant (p<0.05) in the PP analysis (data on file). […] On this basis, all further analyses shown here are defined in the Mild and Moderate subgroups as patients having MMSE scores between 22-26 (Mild) and 16-21 (Moderate) inclusive.

[3] = 250 mg bid, Mild MMSE 22-26 (post-hoc), m-ITT
[4] = 250 mg bid, Mild MMSE 22-26, m-ITT
[5] = 250 mg bid, Mild MMSE 23-26, PPS
[6] = 250 mg bid, Mild MMSE 23-26, m-ITT
[7] = 250 mg bid, Mild MMSE 23-26, m-ITT, week 78, positive = drug benefit

O[C@H]1[C@H](O)[C@@H](O)[C@H](O)[C@@H](O)[C@@H]1O [scyllo-inositol]
aggregation of amyloid β-peptide in the brain [1]: inhibits aggregation of amyloid β-peptide in the brain
ADCS-DL drug-placebo difference [2, 3]: 3.15
CDR-SB drug-placebo difference [2, 3]: 0.97
NTB drug-placebo difference [2, 3]: 0.2
ADCS-DL % effect compared to placebo [2, 4]: 42%
CDR-SB % effect compared to placebo [2, 4]: 42%
NTB % effect compared to placebo [2, 4]: 75%
ADCS-ADL % effect compared to placebo [2, 5]: 31%
ADCS-ADL drug-placebo difference [2, 5]: 2.25
CDR-SB % effect compared to placebo [2, 5]: 44%
CDR-SB drug-placebo difference [2, 5]: 0.95
NTB % effect compared to placebo [2, 5]: 100%
NTB drug-placebo difference [2, 5]: 0.4
ADCS-ADL % effect compared to placebo [2, 6]: 35%
CDR-SB % effect compared to placebo [2, 6]: 40%
NTB % effect compared to placebo [2, 6]: 72%
ADCS-ADL drug-placebo difference [2, 7]: 2.26
CDR-SB drug-placebo difference [2, 7]: 0.87
NTB drug-placebo difference [2, 7]: 0.2
magnitude of the 250 mg effect on the NTB ([2]; 250 mg bid, overall mild and moderate population, per protocol subjects, week 78, not statistically significant): 0.15
NTB benefit compared to placebo ([2]; 250 mg bid, overall population, per protocol subjects, week 78): 40%
benefit on co-primary cognitive and functional endpoints (NTB and ADCS-ADL) ([2]; overall Mild and Moderate population): no statistically significant benefit
